Data as given in publication PMC6399333, “Synthetic energy sensor AMPfret deciphers adenylate-dependent AMPK activation mechanism” (Nature Communications, 2019).
pKd: −log10 of the molar value.

Columns and labels:
[1] = molecular target: T1, AMPK γ1 subunit (in the α2β2γ1 AMPfret heterotrimer) (Rattus norvegicus, UniProt P80385); experiment: fluorometric FRET titration of the purified sensor, single-site fit; type: binding
T1 construct: gene Prkag1; with AMPK α2 (PRKAA2, Rattus norvegicus) and AMPK β2 (PRKAB2, Homo sapiens)
T1 sequence (P80385 whole entry): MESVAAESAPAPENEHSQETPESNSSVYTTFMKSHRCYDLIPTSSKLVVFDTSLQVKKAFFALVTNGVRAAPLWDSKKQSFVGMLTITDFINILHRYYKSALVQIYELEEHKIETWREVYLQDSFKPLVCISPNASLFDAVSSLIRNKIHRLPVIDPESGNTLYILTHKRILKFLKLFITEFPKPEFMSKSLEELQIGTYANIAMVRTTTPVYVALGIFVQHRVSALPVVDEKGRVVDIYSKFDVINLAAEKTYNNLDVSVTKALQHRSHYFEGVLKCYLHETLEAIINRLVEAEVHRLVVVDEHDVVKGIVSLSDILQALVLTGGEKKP
T1 sequence (Q09137 whole entry partner): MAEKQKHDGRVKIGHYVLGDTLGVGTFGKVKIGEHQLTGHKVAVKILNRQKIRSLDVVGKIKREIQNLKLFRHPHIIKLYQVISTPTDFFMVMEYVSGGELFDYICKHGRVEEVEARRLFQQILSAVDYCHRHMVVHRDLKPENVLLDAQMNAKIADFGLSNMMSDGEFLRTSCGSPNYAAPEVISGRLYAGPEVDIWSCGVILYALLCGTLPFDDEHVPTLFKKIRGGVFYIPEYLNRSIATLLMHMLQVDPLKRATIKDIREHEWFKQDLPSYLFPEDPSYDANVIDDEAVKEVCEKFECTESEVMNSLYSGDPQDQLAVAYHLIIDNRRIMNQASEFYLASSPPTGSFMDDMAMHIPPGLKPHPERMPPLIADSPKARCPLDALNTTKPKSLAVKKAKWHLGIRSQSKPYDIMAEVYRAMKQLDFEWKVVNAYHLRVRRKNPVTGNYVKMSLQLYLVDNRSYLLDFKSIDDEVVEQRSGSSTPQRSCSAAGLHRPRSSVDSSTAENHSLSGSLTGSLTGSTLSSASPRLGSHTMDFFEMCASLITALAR
T1 sequence (O43741 whole entry partner): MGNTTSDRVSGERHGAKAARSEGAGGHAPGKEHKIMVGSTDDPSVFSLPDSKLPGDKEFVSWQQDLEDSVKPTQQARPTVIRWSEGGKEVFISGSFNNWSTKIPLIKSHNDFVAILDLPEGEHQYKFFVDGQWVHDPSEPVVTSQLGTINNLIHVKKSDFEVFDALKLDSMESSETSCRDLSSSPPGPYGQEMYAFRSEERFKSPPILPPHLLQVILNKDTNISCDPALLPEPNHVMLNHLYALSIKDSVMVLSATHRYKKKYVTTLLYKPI

[2] = molecular target: T1, AMPK γ1 subunit (in the α2β2γ1 AMPfret heterotrimer); experiment: fluorometric FRET titration of the purified sensor, single-site fit; also allosteric activation in kinase assay; type: binding
Excerpt: fluorometric FRET titration of the purified sensor, single-site fit; also allosteric activation in kinase assay on AMPK γ1 subunit (in the α2β2γ1 AMPfret heterotrimer) | AMPfret reports binding of AMP (in absence of ATP) at one or more binding sites

Structure (SMILES) | pKd [1] | pKd [2]
Nc1ncnc2c1ncn2[C@@H]1O[C@H](COP(=O)(O)OP(=O)(O)O)[C@@H](O)[C@H]1O [ADP] | 5.12 | 
Nc1ncnc2c1ncn2[C@@H]1O[C@H](COP(=O)(O)O)[C@@H](O)[C@H]1O [AMP] |  | ~5.82
